Measured values taken from patent US20090137565A1, “Method for treatment of movement disorders” (The Trustees of Columbia University in the City of New York, priority 2004, published 2009).
“Also recorded” adds a separate entry of the source.

Key:
[1] = Five-patient trial: tolerability of Xyrem; format: in vivo, human
Description: Side effects were defined as either minor or serious (leading to hospitalization) using good clinical practice standards (www.who.int/medicines/library/par/ggcp/GCPGuidePharmatrials), and patients were asked to report side effects at each visit. After initial examination and videotaping, patients were given 1 gm of sodium oxybate by mouth (2 ml of the standard 0.5 gm/ml solution dissolved in 60 ml of water). One hour later, the senior author repeated the examination and videotaping. […] After two weeks taking 2 gm twice daily, the procedure was repeated after a 3 gm office dose, and finally two weeks after receiving 3 gm twice daily, the procedure was repeated after a 4 gm office dose. The maximum dose allowed in the trial was 4 gm twice daily. Patients and the senior author determined at each visit whether or not to proceed to the next dose level, based principally on their ability to tolerate the most recent dose regimen. After deciding on a maximum tolerated dose, patients received a dose in the office 0.5 gm less and the examination was videotaped.

[2] = tested on: medication-refractory, ethanol-responsive myoclonus (PHM, MD, PME); experiment: Twenty-patient open-label trial of sodium oxybate, blinded UMRS (myoclonus patients); format: in vivo, human; conditions: for Stim-sens. myoclonus score: dose 0 score 5.8; for Functional performance score: dose 0 score 12.9; for Action myoclonus score: dose 0 score 45.3; for Myoclonus at rest score: dose 0 score 7.4
Description: Twenty patients age 18 or older were recruited from a clinical practice at the Movement Disorders Division of Columbia University Medical Center. Eligible patients with medication-refractory, ethanol-responsive myoclonus (6 PHM, 3 MD, 2 PME) or ET (9 patients) (Table 1) were offered enrollment from February 2004 to March 2005. The medical center's institutional review board approved the protocol, and written informed consent was obtained from all participants. All had myoclonus or ET that improved (by self-report) with ingestion of ethanol. All patients were medication-refractory, defined as obtaining inadequate benefit from best medical treatment or being unable to tolerate treatment. The dose and timing of other medications were kept constant before and during the trial.
Twelve men and 8 women enrolled. Results from patients #6, and #s 1, 2, 7, 12, and 13 were reported previously. Frucht, S. J., et al. Mov Disord 20:745-51 (2005); Frucht, S. J., et al. Mov Disord 20:1330-7 (2005). Mean age/symptom duration was 43.9 yrs/12.3 yrs (myoclonus) and 71.2 yrs/26.7 yrs (ET). Patients with myoclonus were examined and videotaped at each visit using the Unified Myoclonus Rating Scale (UMRS), and patients with ET were examined and videotaped using the modified Washington Heights Inwood Genetic Essential Tremor Rating Scale (WHIGET; Appendix 1). Frucht, S. J., et al. Mov Disord 20:1330-7 (2005). After initial baseline examination and videotaping, patients took 1 gm of sodium oxybate by mouth (2 ml of the standard 0.5 gm/ml solution dissolved in 60 ml of water), and one hour later the videotaped examination was repeated. Patients were maintained on a dose of 1 gm T.I.D. (taken before meals) until their next office visit two weeks later, when the examination and videotaping were repeated one hour after receiving 1.5 gm of sodium oxybate. Subsequent visits and dose titrations at two-week intervals were repeated until the maximum dose was reached (3 gm T.I.D), patients were satisfied with the results of treatment, or until they developed side effects that they viewed as troublesome. Dosing for patients #1, 2, 6, 7, 12, and 13 was slightly different (1 gm BID, with dose increments of 2 gm to maximum dose of 4 gm BID), but office visits and videotaping protocol were otherwise identical.
The entire videotape segments and writing samples from each visit were copied and randomly ordered, and identifying features that might reveal trial order or drug dose were removed. A blinded movement disorder neurologist scored each videotape segment using the UMRS or the WHIGET. Sub-scores for each visit were calculated as described previously. Frucht, S. J., et al. Mov Disord 20:1330-7 (2005). Based on data from the first two ET cases, and assuming alpha=0.05, power=80%, and a 25% reduction in post-treatment tremor severity, we calculated that eight ET cases were required. A similar number of myoclonus patients would provide >80% power to detect a 25% reduction in the severity of post-treatment action myoclonus. Paired t tests were performed for scores pre- and post-treatment.

[3] = tested on: NREM and REM sleep; conditions: about 30-60 mg/kg doses, healthy human volunteers; cited from earlier work
[4] = patient 4, listed as Xyrem ®, monosodium salt

SMILES: O=C([O-])CCCO.[Na+] [GHB, 4-hydroxybutanoic acid monosodium salt]
- common side effects not requiring dose reduction ([1]; five patients): Transient headache and dizziness
- Dose @ D-L-SE ([1]; patient 1): 3 gm
- D-L-SE (dose-limiting side effect) ([1]; patient 1, disinhibition printed as mild, listed as Xyrem ®, monosodium salt): sedation and mild; also recorded: disinhibition
- SER SE (serious side effect, leading to hospitalization) ([1]; patient 1, judged not likely related to study drug): asthma
- Dose @ D-L-SE ([1]; patient 2): 3 gm
- MILD SE ([1]; patient 2): Ø
- SER SE ([1]; patient 2): Ø
- D-L-SE (dose-limiting side effect) ([1]; patient 2, listed as Xyrem ®, monosodium salt): emotional lability
- D-L-SE (dose-limiting side effect) ([1]; patient 3): slight sedation
- Dose @ D-L-SE ([1]; patient 3): 4 gm
- SER SE ([1]; patient 3): Ø
- MILD SE ([1]; patient 3, listed as Xyrem ®, monosodium salt): HA (1 gm); also recorded: dizzy (1 gm)
- Dose @ D-L-SE ([1]; patient 4): 2 gm
- SER SE ([1]; patient 4): Ø
- D-L-SE (dose-limiting side effect) [1, 4]: emotional lability
- MILD SE [1, 4]: HA (1 gm); also recorded: dizzy (2 gm)
- D-L-SE (dose-limiting side effect) ([1]; patient 5): slight sedation
- Dose @ D-L-SE ([1]; patient 5): 2 gm
- MILD SE ([1]; patient 5): Ø
- SER SE ([1]; patient 5): Ø
- Stim-sens. myoclonus score ([2]; 1 gm, p 0.01**): 3.2 (0.01)**
- Functional performance score ([2]; 1 gm, p 0.044*): 11.0 (0.044)*
- Action myoclonus score ([2]; 1 gm, p 0.047*): 33.4 (0.047)*
- Functional performance score ([2]; 1.5 gm, p 0.007*): 9.6 (0.007)*
- Stim-sens. myoclonus score ([2]; 1.5 gm, p 0.11): 3.2 (0.11)
- Action myoclonus score ([2]; 1.5 gm, p 0.122): 26.8 (0.122)
- Myoclonus at rest score ([2]; 1.5 gm, p 0.247): 1.2 (0.247)
- Stim-sens. myoclonus score ([2]; 2 gm, p 0.001**): 2.8 (0.001)**
- Action myoclonus score ([2]; 2 gm, p 0.005*): 30.9 (0.005)*
- Myoclonus at rest score ([2]; 2 gm, p 0.047*): 3.6 (0.047)*
- Functional performance score ([2]; 2 gm, p <0.001**): 6.0 (<0.001)**
- Functional performance score ([2]; 2.5 gm, p 0.002**): 7.4 (0.002)**
- Action myoclonus score ([2]; 2.5 gm, p 0.046*): 26.2 (0.046)*
- Myoclonus at rest score ([2]; 2.5 gm, p 0.055): 0.6 (0.055)
- Stim-sens. myoclonus score ([2]; 2.5 gm, p <0.001**): 1.4 (<0.001)**
- Stim-sens. myoclonus score ([2]; 3.0 gm, p 0.02*): 1.0 (0.02)*
- Functional performance score ([2]; 3.0 gm, p 0.059): 6.9 (0.059)
- Action myoclonus score ([2]; 3.0 gm, p 0.064): 33.0 (0.064)
- Myoclonus at rest score ([2]; 3.0 gm, p 0.129): 0.75 (0.129)
- Myoclonus at rest score ([2]; individ. dose 1 gm, p 0.137 vs pre-treatment): 4.9 (0.137)
- dose of maximal improvement ([2]; myoclonus measures): 2.5 gm
- Myoclonus at rest ([2]; patient #3 (MD), after receiving 3 mg (so in the source)): disappeared
- stimulus-sensitive myoclonus to sound and pinprick ([2]; patient #4 (PME), after 3 gm): only stimulus-sensitive myoclonus of the right hand remained
- action myoclonus on finger-to-nose ([2]; patient #6 (PHM), standing unassisted now possible): significantly improved
- Myoclonus at rest ([2]; patient #11 (PHM), after receiving 2.5 mg (so in the source)): disappeared
- functional performance, using a soupspoon ([2]; patients #9 (PHM) and #5 (PME)): improved
- duration of normal sequence of NREM and REM sleep [3]: 2 to 3 h
